Experimental data taken from BindingDB's records for doi:10.1016/j.bmcl.2005.03.089 (Yunnan University, 2022).

Target: Replicase polyprotein 1ab (Severe acute respiratory syndrome coronavirus 2, UniProt P0DTD1)
Assay: Inhibition of SARS-CoV-2 MPro incubated for 5 mins by FRET assay

Compound | IC50
CC(C)=CCc1cc(/C=C2\OC(=O)C(c3cc4c(cc3O)OC(C)(C)CC4)=C2O)ccc1O | 10.3 µM
CC(C)(O)C1Cc2cc(/C=C3\OC(=O)C(c4cc5c(cc4O)OC(C)(C)C(O)C5)=C3O)ccc2O1 (stereo not drawn) | 9.4 µM
CC(C)=CCc1cc(/C=C2\OC(=O)C(c3cc(CCC(C)(C)O)c(O)cc3O)=C2O)ccc1O | 7.7 µM
